In assay [1] the target is T1, AarF domain-containing protein kinase 1 (Homo sapiens, UniProt Q86TW2).
T1 sequence (Q86TW2 whole entry): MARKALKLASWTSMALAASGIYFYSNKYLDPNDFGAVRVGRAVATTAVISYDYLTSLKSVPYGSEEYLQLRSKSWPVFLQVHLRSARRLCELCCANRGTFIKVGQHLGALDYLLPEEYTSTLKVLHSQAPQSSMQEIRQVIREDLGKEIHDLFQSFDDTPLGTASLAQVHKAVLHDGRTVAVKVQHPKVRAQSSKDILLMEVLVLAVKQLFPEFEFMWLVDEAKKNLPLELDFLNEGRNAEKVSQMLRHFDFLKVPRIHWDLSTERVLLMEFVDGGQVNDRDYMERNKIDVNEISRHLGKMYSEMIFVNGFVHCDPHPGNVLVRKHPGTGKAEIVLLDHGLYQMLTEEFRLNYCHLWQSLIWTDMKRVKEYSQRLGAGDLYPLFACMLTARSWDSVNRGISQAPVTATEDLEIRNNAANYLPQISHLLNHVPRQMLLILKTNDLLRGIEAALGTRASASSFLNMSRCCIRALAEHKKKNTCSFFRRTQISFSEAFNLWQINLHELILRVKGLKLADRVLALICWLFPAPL

For assay [2], the target named is Cyclin-dependent kinase 3 (Homo sapiens, UniProt Q00526).
Cyclin-dependent kinase 3, sequence (Q00526 whole entry, canonical isoform): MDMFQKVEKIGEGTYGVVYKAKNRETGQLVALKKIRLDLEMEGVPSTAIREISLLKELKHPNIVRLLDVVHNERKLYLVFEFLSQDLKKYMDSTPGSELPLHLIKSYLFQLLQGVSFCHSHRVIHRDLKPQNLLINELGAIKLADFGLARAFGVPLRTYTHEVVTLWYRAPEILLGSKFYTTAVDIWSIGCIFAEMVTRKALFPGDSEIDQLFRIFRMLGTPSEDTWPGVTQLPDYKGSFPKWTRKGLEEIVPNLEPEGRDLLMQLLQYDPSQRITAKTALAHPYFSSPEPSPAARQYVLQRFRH
Assay [3] has as its target Casein kinase I isoform alpha (Homo sapiens, UniProt P48729).
The target in a further assay is T2, Ephrin type-A receptor 1 (Homo sapiens, UniProt P21709).
T2 sequence (P21709 whole entry): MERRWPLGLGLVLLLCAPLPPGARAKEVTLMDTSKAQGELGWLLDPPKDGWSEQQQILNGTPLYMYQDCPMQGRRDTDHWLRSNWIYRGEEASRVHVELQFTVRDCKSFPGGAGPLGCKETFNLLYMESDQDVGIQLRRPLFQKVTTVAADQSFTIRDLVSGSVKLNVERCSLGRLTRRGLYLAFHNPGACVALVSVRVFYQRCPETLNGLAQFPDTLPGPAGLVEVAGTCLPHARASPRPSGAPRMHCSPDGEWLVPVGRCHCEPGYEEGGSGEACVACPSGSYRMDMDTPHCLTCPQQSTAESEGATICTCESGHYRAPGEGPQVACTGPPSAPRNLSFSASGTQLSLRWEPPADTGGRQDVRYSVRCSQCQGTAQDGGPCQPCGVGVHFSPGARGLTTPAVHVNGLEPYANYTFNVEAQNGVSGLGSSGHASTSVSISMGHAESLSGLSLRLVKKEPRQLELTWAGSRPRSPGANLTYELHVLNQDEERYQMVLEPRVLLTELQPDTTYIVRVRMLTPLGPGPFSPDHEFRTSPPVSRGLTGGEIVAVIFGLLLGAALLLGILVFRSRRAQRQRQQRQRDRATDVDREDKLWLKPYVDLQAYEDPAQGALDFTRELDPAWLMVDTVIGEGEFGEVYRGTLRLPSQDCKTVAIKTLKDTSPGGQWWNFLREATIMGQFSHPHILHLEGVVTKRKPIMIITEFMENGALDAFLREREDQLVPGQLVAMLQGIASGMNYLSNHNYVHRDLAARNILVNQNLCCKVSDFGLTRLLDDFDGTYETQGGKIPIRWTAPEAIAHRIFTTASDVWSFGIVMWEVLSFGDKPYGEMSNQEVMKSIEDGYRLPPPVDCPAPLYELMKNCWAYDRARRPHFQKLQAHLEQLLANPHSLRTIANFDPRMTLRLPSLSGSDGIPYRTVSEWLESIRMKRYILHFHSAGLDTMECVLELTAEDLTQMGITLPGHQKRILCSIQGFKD

For assay [4], the target named is Fibroblast growth factor receptor 1 (Homo sapiens, UniProt P11362).
Fibroblast growth factor receptor 1, sequence (P11362 whole entry, canonical isoform): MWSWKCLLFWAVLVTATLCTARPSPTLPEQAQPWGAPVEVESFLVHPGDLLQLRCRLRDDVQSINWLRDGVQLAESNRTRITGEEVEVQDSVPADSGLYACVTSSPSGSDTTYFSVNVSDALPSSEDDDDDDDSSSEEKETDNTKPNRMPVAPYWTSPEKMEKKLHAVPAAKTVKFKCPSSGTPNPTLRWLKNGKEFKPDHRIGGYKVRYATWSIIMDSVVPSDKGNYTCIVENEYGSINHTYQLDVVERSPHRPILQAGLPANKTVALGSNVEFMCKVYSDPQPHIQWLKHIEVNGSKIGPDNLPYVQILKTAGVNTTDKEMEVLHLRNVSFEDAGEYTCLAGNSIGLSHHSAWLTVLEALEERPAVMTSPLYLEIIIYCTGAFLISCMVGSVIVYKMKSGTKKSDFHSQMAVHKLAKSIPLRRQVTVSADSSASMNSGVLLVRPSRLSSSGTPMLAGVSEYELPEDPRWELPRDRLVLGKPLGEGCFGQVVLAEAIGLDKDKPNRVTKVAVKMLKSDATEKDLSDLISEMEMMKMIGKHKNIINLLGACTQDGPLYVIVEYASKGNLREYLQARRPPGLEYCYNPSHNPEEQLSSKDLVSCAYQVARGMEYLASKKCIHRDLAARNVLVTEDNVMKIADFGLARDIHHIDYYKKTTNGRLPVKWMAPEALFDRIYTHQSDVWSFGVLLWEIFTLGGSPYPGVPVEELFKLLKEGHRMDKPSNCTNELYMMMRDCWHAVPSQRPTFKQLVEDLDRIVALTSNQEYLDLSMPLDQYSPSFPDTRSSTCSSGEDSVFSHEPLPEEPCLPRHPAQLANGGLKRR
Assay [5] concerns the target T3, Phosphorylase b kinase gamma catalytic chain, liver/testis isoform (Homo sapiens, UniProt P15735).
T3 sequence (P15735 whole entry): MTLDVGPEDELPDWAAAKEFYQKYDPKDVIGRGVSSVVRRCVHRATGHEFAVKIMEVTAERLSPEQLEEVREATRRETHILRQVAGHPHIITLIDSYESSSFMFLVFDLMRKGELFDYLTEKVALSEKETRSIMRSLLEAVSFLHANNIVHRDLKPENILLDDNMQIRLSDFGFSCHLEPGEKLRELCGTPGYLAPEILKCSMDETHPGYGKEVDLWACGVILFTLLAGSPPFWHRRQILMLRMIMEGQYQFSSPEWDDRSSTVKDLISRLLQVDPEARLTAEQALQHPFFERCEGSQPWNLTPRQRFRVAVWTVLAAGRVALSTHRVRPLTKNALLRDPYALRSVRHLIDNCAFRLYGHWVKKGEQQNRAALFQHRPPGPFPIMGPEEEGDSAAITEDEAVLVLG

In assay [6] the target is Ribosomal protein S6 kinase beta-1 (Homo sapiens, UniProt P23443).
Ribosomal protein S6 kinase beta-1, sequence (P23443 whole entry): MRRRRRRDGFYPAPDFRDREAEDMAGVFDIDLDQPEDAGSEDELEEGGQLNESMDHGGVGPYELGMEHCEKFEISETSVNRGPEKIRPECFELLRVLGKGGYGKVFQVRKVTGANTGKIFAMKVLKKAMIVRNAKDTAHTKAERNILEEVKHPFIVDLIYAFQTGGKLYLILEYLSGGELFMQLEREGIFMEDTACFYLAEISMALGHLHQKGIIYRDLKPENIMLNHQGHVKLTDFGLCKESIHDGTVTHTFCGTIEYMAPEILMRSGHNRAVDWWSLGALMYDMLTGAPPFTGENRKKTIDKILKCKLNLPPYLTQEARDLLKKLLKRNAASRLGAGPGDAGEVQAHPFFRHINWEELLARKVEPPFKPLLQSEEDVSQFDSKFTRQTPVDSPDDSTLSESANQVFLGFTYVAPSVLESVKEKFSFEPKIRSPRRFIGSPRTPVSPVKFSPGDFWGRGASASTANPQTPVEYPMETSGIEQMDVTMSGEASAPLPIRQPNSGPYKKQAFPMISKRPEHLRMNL
Assay [7] addresses DNA topoisomerase 2-alpha (Homo sapiens, UniProt P11388).

Active and inactive are the calls of the source. Rule as the data show it, for most assays here: actives have a measured Kd and inactives only a lower limit.

In general, Kd refers to a measure of binding affinity in units of concentration.
Also: in the data inactive means no Kd found up to 30 µM.

Casein kinase I isoform alpha, sequence (P48729 whole entry, canonical isoform): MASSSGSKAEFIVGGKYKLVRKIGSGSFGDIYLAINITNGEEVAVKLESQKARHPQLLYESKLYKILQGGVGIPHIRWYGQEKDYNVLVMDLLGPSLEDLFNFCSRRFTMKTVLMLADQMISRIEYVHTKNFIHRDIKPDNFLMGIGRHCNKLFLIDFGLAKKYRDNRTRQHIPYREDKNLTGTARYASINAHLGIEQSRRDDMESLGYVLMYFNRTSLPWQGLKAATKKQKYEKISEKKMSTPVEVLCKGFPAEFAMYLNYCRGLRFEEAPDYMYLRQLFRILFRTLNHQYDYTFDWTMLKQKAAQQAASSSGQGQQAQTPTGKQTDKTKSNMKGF
DNA topoisomerase 2-alpha, sequence (P11388 whole entry): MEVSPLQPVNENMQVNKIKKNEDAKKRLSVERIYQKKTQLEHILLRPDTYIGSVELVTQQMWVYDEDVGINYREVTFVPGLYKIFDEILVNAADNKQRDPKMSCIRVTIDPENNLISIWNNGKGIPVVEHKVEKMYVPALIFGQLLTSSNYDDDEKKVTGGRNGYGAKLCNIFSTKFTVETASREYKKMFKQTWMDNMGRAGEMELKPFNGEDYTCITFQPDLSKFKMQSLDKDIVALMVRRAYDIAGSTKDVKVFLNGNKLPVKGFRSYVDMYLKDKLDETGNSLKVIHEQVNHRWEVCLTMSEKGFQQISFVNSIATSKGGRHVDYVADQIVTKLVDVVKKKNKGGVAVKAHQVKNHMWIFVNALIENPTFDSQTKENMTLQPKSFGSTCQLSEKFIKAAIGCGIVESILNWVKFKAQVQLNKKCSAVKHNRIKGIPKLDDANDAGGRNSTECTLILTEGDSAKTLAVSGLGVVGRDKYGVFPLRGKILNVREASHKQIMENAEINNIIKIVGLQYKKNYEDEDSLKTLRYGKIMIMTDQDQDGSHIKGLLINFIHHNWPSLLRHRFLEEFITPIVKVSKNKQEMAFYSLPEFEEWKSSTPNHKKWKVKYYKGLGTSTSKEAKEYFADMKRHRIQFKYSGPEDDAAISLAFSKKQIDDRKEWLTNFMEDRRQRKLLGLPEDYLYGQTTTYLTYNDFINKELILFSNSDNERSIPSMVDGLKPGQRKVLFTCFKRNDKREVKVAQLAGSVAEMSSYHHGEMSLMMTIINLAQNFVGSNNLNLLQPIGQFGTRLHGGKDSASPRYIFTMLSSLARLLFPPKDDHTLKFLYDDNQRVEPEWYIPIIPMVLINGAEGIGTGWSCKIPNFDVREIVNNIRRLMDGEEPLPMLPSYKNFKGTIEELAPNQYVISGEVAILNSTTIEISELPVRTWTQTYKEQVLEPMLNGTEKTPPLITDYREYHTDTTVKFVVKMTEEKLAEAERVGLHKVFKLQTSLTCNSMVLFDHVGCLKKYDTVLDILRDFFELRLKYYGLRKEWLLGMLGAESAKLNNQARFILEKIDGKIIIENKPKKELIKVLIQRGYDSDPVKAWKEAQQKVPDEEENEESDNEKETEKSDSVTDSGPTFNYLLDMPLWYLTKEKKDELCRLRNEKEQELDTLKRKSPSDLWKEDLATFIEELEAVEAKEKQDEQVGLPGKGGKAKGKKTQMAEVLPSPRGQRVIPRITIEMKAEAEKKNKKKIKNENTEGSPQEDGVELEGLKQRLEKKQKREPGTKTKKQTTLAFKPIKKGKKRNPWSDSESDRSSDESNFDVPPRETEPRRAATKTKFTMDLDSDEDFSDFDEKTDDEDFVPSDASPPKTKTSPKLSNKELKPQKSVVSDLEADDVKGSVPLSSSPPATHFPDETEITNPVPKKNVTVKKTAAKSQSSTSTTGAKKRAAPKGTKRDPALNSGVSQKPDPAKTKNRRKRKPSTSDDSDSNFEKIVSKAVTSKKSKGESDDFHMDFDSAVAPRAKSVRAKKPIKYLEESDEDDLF

For `CN1C/C=C/CCOc2cccc(c2)-c2ccnc(n2)Nc2cccc(c2)C1` [ZOTIRACICLIB], the Kd in assay [1] was 0.023 µM; in assay [2], > 30 µM (inactive); in assay [3] it was > 30 µM (inactive); on Ephrin type-A receptor 1, > 30 µM (inactive); in assay [4], > 30 µM (inactive); in assay [5] it was > 30 µM (inactive). Besides, the Kd in assay [6] and in assay [7] was > 30 µM (inactive) in each case.

Source of the values: ChEMBL document CHEMBL3991601, “The target landscape of clinical kinase drugs” (Science, 2017).
